Measured values taken from patent US5916915A, “Water-in-stable L-ascorbic acid derivative and a method for preparation thereof, and a skin-whitening cosmetic composition containing the same” (priority 1997, dated 1999).
Entries after “also recorded” stand apart in the source; their conditions may differ.

Columns and labels:
skin of healthy females [1] = experiment: Human Patch Test; type: in vivo
Method: Test was carried out for thirty(30) of healthy females aging 20~30 years according to CTFA Guideline(The Cosmetic, Toiletry and Fragrance Association. Inc. Washington, D.C., 20023, 1991).
The back of the subjected was washed with 70% of ethanol and dried, and then, applied with a finn chamber containing 20 μl of patch base incorporating 10% of AsA-APPA of Preparation Ex. 2. The finn chamber was fixed to the tested site using a micropore tape. 24 hours later, the tape and the chamber were removed, and the tested site was marked with marking pen. After 24 hours or 48 hours, skin responses of the tested sites were observed and skin irritation were evaluated according to ICDRG(International Contact Dermatitis Research Group)'s criterion.
*Average Response = Grade of the sample/4(Maximum grade) × 30(Total

skin of healthy females [2] = experiment: Repeat Insult Human Patch Test; type: in vivo
Method: Test was carried out for twenty(20) of healthy females aging 20~30 years according to CTFA Guideline(The Cosmetic, Toiletry and Fragrance Association. Inc. Washington, D.C., 20023, 1991).
The back of the subjected was washed with 70% of propanol and dried, and then, applied with a finn chamber containing 20 μl of patch base incorporating 10% of AsA-APPA of Preparation Ex. 2. Applications were repeated every 24 hours for 3 weeks (Induction Period). After about 2 weeks, Challenge Insult Patch was carried out. At this step, the sites tested during the induction period and new sites were applied with the patches for 48 hours. […] And, skin irritation was evaluated according to ICDRG(International Contact Dermatitis Research Group)'s criterion.

[3] = 10% AsA-APPA, text and Table 5, unit not given

## NCCCOP(=O)(O)OC1=C(O)[C@@H]([C@@H](O)CO)OC1=O [AsA-APPA, 2-(3-aminopropanephosphoric acid)-L-ascorbate]
Skin of healthy females [1]; 10% AsA-APPA
  Evaluation of human patch test: primary irritative response, except for 1% of erythema, was hardly observed; also recorded: No irritative
Skin of healthy females [1]; [3]
  Average response: 0.42
Skin of healthy females [1]; 24 hr., N = 30, 10% AsA-APPA, erythema
  Response: 1%
Skin of healthy females [1]; 48 hours, 10% AsA-APPA
  irritation after 48 hours: all the irritation fade away
Skin of healthy females [1]; 48 hr., N = 30, 10% AsA-APPA
  Response: 0%
Skin of healthy females [1]; N = 30, 10% AsA-APPA, Table 3
  Average response: 0.42%
Skin of healthy females [2]; 10% AsA-APPA
  Evaluation of repeat insult human patch test: No irritative
  repeat irritation or sensitive irritation: no repeat irritation or no sensitive irritation was observed
Skin of healthy females [2]; 10% AsA-APPA, unit not given
  Average response, challenge period: 0
Skin of healthy females [2]; [3]
  Average response, induction period: 0.14
Skin of healthy females [2]; n = 20, 10% AsA-APPA, Table 4
  Average response, challenge period: 0%
  Average response, induction period: 0.14%
Skin of healthy females [2]; week 1, 10% AsA-APPA
  Induction Period response: 1
